Each molecule was assayed on Soybean (Glycine max) (assay: Upland soil application test, crop injury soybean). Details: soil application one day after seeding, 50 g ai/a, wettable powder, fresh weight on 50th day after spray.
Type: in vivo
Protocol: (§1) Resin-made 1/1000-are pots were filled with the soil of an upland field. After they were fertilized, cotton and soybean were seeded and 3 cm soil covering was applied. In addition, amaranth, common lambs-quarters, barnyardgrass, green foxtail, large crabgrass and johnsongrass were seeded and 1 cm soil covering was applied. One day later, a wettable powder prepared from a predetermined amount of each test compound in a similar manner to the procedures described in Formulation Example 1 was diluted with water and then sprayed evenly at an application rate equal to 10 l per are onto the surface of the soil by means of a pressure-operated sprayer. The weeds and crops were allowed to grow in a green house and influence to them were observed on the 50th day after the spray. The degree of damages of each test plant and the degree of injury to each crop were determined by measuring fresh weight in each group and indicated by % calculated according to the following formula. [formula]

Structure (SMILES)	Crop injury Soybean (Glycine max) [%]
CCCCCCCOC(OCCCCCCC)c1ccccc1Oc1nc(OC)cc(OC)n1 [Compound No. 6]	0
COc1cc(OC)nc(Oc2ccccc2C(OC(C)C)OC(C)C)n1 [Compound No. 2]	0

The molecules below were run on Foxtail (Setaria viridis) (assay: Upland soil application test, green foxtail). Details: 1200 h, soil application one day after seeding, 50 g ai/a, wettable powder, fresh weight on 50th day after spray, read-out: Herbicidal effects Foxtail (Setaria viridis).
Type: in vivo
Protocol: as §1

Structure (SMILES)	pest or weed control at 5000 g/ha [%]
CCCCCCCOC(OCCCCCCC)c1ccccc1Oc1nc(OC)cc(OC)n1 [Compound No. 6]	100
COc1cc(OC)nc(Oc2ccccc2C(OC(C)C)OC(C)C)n1 [Compound No. 2]	85

The molecules below were run on common lambsquarters (assay: Upland foliar application test, common lambsquarters). Details: Chenopodium album, 960 h; foliar application at stage of 2-3 leaves, 50 g ai/a, emulsion, 40th day after spray; read-out: Herbicidal effects Common lambquarters.
Type: in vivo
Protocol: (§2) Resin-made 1/1000-are pots were filled with the soil of an upland field. After they were fertilized, cotton and soybean were seeded and 3 cm soil covering was applied. Five days later, amaranth, common lambsquarters, barnyardgrass, green foxtail, large crabgrass and johnsongrass were seeded and 1 cm soil covering was applied. They were allowed to grow in a green house. When each plant grew to the stage of 2-3 leaves, an emulsion formulated from a predetermined amount of each test compound in a similar manner to the procedures described in Formulation Example 11 was diluted with water and then sprayed at a predetermined application rate by means of a pressure-operated sprayer. The application rate was controlled at 5 l per are. Influence to the crops and weeds were observed on the 40th day after the spray of the herbicides. The results are shown in Table 4 in which the degree of damages of each test plant and the degree of injury to each crop are shown in a similar manner to Test 2.

Structure (SMILES)	pest or weed control at 5000 g/ha [%]
CCCCCCCOC(OCCCCCCC)c1ccccc1Oc1nc(OC)cc(OC)n1 [Compound No. 6]	90
COc1cc(OC)nc(Oc2ccccc2C(OC(C)C)OC(C)C)n1 [Compound No. 2]	80

The molecules below were run on johnsongrass emerging from rhizome (assay: Application test on johnsongrass emerging from rhizome). Details: foliar application at stage of 4-5 leaves, application rate of active ingredient 20 (unit not given), emulsion, 50th day after spray.
Type: in vivo
Protocol: as §1
Resin-made 1/1000-are pots were filled with the soil of an upland field. After they were fertilized, rhizome of johnsongrass were transplanted to the pots and 3 cm soil covering was applied. They were allowed to grow in a green house. When each johnsongrass grew to the stage of 4-5 leaves, an emulsion formulated from a predetermined amount of each test compound in a similar manner to the procedures described in Formulation Example 11 was diluted with water and then sprayed at a predetermined application rate by means of a pressure-operated sprayer. The application rate was controlled at 5 l per are. The effect of each compound against the johnsongrass emerging from its rhizome was observed on the 50th day after the spray of the herbicides. The results are shown in Table 5 in which the herbicidal effect against johnsongrass is shown in a similar manner to Test 2.

Structure (SMILES)	Herbicidal effect against johnsongrass emerging from rhizome [%]
CCCCCCCOC(OCCCCCCC)c1ccccc1Oc1nc(OC)cc(OC)n1 [Compound No. 6]	85
COc1cc(OC)nc(Oc2ccccc2C(OC(C)C)OC(C)C)n1 [Compound No. 2]	95

The molecules below were run on Crabgrass (Digitaria adscendens) (assay: Upland soil application test, large crabgrass). Details: 1200 h, soil application one day after seeding, 50 g ai/a, wettable powder, fresh weight on 50th day after spray, read-out: Herbicidal effects Crabgrass (Digitaria adscendens).
Type: in vivo
Protocol: as §1

Structure (SMILES)	pest or weed control at 5000 g/ha [%]
CCCCCCCOC(OCCCCCCC)c1ccccc1Oc1nc(OC)cc(OC)n1 [Compound No. 6]	85
COc1cc(OC)nc(Oc2ccccc2C(OC(C)C)OC(C)C)n1 [Compound No. 2]	80

The molecules below were run on Amaranth (Amaranthus viridis) (assay: Upland foliar application test, amaranth). Details: 960 h, foliar application at stage of 2-3 leaves, 50 g ai/a, emulsion, 40th day after spray, read-out: Herbicidal effects Amaranth (Amaranthus viridis).
Type: in vivo
Protocol: as §1, §2

Structure (SMILES)	pest or weed control at 5000 g/ha [%]
CCCCCCCOC(OCCCCCCC)c1ccccc1Oc1nc(OC)cc(OC)n1 [Compound No. 6]	95
COc1cc(OC)nc(Oc2ccccc2C(OC(C)C)OC(C)C)n1 [Compound No. 2]	100

Each molecule was assayed on Cotton (Gossypium indicum) (assay: Upland soil application test, crop injury cotton). Details: soil application one day after seeding, 50 g ai/a, wettable powder, fresh weight on 50th day after spray.
Type: in vivo
Protocol: as §1

Structure (SMILES)	Crop injury Cotton (Gossypium indicum) [%]
CCCCCCCOC(OCCCCCCC)c1ccccc1Oc1nc(OC)cc(OC)n1 [Compound No. 6]	0
COc1cc(OC)nc(Oc2ccccc2C(OC(C)C)OC(C)C)n1 [Compound No. 2]	0

The molecules below were run on ALS (acetolactate syntase) from barnyardgrass seedlings (assay: ALS (acetolactate syntase) inhibition test, barnyardgrass enzyme). Details: 10,000 ppm (0.5 μg/0.5 ml) of compound; 1 hour at 30° C.; absorbance at 525 nm.
Type: biochemical
Protocol: (§3) To determine the selectivity in enzyme level between crops and weeds, an ALS inhibition test was conducted using pea as a typical broadleaf crop and barnyardgrass as a representative gramineous weeds.
(§4) After seeds of pea and barnyardgrass were allowed to germinate at 25° C. for 8-14 days in a dark place, partially-purified suspensions (Suspensions A) of acetolactate syntase were separately obtained from the seedlings in accordance with the procedures described in the literature, Plant Physiology, 75, 827-831. In a test tube, 0.5 mg of one of test compounds was weighed, followed by the addition of 0.15 ml of a 20 mM K2 HPO4 solution and 0.25 ml of a reaction substrate medium which consisted of 40 mM of K2 HPO4, 40 mM of sodium pyruvate, 1 mM of TPP, 1 mM of MgCl2 and 20 μM of FAD so that 0.4 ml of a reaction solution (Solution B) was prepared. Added to 0.4 ml of Solution B was 0.1 ml of Suspension A. After the resultant mixture was shaken for 1 hour in a thermostat water bath controlled at 30° C., 50 μl of 6N sulfuric acid were added to terminate the reaction.
(§5) Next, the test tube with the reaction-terminated liquid mixture contained therein was transferred into a thermostat water bath controlled at 60° C. and was heated for 15 minutes. Thereafter, 0.5 ml of a 0.5% creatine solution and 0.5 ml of a 5% alkaline α-naphthol solution were added, and the resultant mixture was maintained at 60° C. for 15 minutes. As a result, the test solution developed a pink-to-red color. After the above operation, the absorbance of the test solution at 525 nm was measured by a spectrophotometer (Absorbance 1 of Test Compound).
(§6) Further, the absorbance (Absorbance 2 of Blank) of a solution obtained by subjecting a portion of Solution B to the above procedures without addition of any test compound and the absorbance (Absorbance 3 of sulfuric acid) of another solution obtained by subjecting another portion of Solution B to the above procedures which using 50 μl of 6N sulfuric acid as a test compound were also measured.

Structure (SMILES)	Enzymoreaction inhibition rate (%) Barnyardgrass [%]
CCCCCCCOC(OCCCCCCC)c1ccccc1Oc1nc(OC)cc(OC)n1 [Compound No. 6]	100
COc1cc(OC)nc(Oc2ccccc2C(OC(C)C)OC(C)C)n1 [Compound No. 2]	100

The molecules below were run on Barnyardgrass (Echinochloa crusgalli) (assay: Upland foliar application test, barnyardgrass). Details: Echinochloa crus-galli, 960 h; foliar application at stage of 2-3 leaves, 50 g ai/a, emulsion, 40th day after spray; read-out: Herbicidal effects Barnyardgrass (Echinochloa crusgalli).
Type: in vivo
Protocol: as §2

Structure (SMILES)	pest or weed control at 5000 g/ha [%]
CCCCCCCOC(OCCCCCCC)c1ccccc1Oc1nc(OC)cc(OC)n1 [Compound No. 6]	95
COc1cc(OC)nc(Oc2ccccc2C(OC(C)C)OC(C)C)n1 [Compound No. 2]	80

The molecules below were run on ALS (acetolactate syntase) from pea seedlings (assay: ALS (acetolactate syntase) inhibition test, pea enzyme). Details: 10,000 ppm (0.5 μg/0.5 ml) of compound; 1 hour at 30° C.; absorbance at 525 nm.
Type: biochemical
Protocol: as §3, §4, §5, §6

Structure (SMILES)	Enzymoreaction inhibition rate (%) Pea [%]
CCCCCCCOC(OCCCCCCC)c1ccccc1Oc1nc(OC)cc(OC)n1 [Compound No. 6]	0
COc1cc(OC)nc(Oc2ccccc2C(OC(C)C)OC(C)C)n1 [Compound No. 2]	0

The molecules below were run on Johnsongrass (assay: Upland foliar application test, johnsongrass). Details: Sorghum halepense, 960 h; foliar application at stage of 2-3 leaves, 50 g ai/a, emulsion, 40th day after spray; read-out: Herbicidal effects Johnsongrass.
Type: in vivo
Protocol: as §2

Structure (SMILES)	pest or weed control at 5000 g/ha [%]
CCCCCCCOC(OCCCCCCC)c1ccccc1Oc1nc(OC)cc(OC)n1 [Compound No. 6]	100
COc1cc(OC)nc(Oc2ccccc2C(OC(C)C)OC(C)C)n1 [Compound No. 2]	100

The molecules below were run on common lambsquarters (assay: Upland soil application test, common lambsquarters). Details: Chenopodium album, 1200 h; soil application one day after seeding, 50 g ai/a, wettable powder, fresh weight on 50th day after spray; read-out: Herbicidal effects Common lambquarters.
Type: in vivo
Protocol: as §1

Structure (SMILES)	pest or weed control at 5000 g/ha [%]
CCCCCCCOC(OCCCCCCC)c1ccccc1Oc1nc(OC)cc(OC)n1 [Compound No. 6]	90
COc1cc(OC)nc(Oc2ccccc2C(OC(C)C)OC(C)C)n1 [Compound No. 2]	85

The molecules below were run on Soybean (Glycine max) (assay: Upland foliar application test, crop injury soybean). Details: foliar application at stage of 2-3 leaves, 50 g ai/a, emulsion, 40th day after spray.
Type: in vivo
Protocol: as §2

Structure (SMILES)	Crop injury Soybean (Glycine max) [%]
CCCCCCCOC(OCCCCCCC)c1ccccc1Oc1nc(OC)cc(OC)n1 [Compound No. 6]	0
COc1cc(OC)nc(Oc2ccccc2C(OC(C)C)OC(C)C)n1 [Compound No. 2]	0

The molecules below were run on Foxtail (Setaria viridis) (assay: Upland foliar application test, green foxtail). Details: 960 h, foliar application at stage of 2-3 leaves, 50 g ai/a, emulsion, 40th day after spray, read-out: Herbicidal effects Foxtail (Setaria viridis).
Type: in vivo
Protocol: as §1, §2

Structure (SMILES)	pest or weed control at 5000 g/ha [%]
CCCCCCCOC(OCCCCCCC)c1ccccc1Oc1nc(OC)cc(OC)n1 [Compound No. 6]	95
COc1cc(OC)nc(Oc2ccccc2C(OC(C)C)OC(C)C)n1 [Compound No. 2]	100

Each molecule was assayed on Barnyardgrass (Echinochloa crusgalli) (assay: Upland soil application test, barnyardgrass). Details: Echinochloa crus-galli, 1200 h; soil application one day after seeding, 50 g ai/a, wettable powder, fresh weight on 50th day after spray; read-out: Herbicidal effects Barnyardgrass (Echinochloa crusgalli).
Type: in vivo
Protocol: as §1

Structure (SMILES)	pest or weed control at 5000 g/ha [%]
CCCCCCCOC(OCCCCCCC)c1ccccc1Oc1nc(OC)cc(OC)n1 [Compound No. 6]	95
COc1cc(OC)nc(Oc2ccccc2C(OC(C)C)OC(C)C)n1 [Compound No. 2]	80

Each molecule was assayed on Crabgrass (Digitaria adscendens) (assay: Upland foliar application test, large crabgrass). Details: 960 h, foliar application at stage of 2-3 leaves, 50 g ai/a, emulsion, 40th day after spray, read-out: Herbicidal effects Crabgrass (Digitaria adscendens).
Type: in vivo
Protocol: as §1, §2

Structure (SMILES)	pest or weed control at 5000 g/ha [%]
CCCCCCCOC(OCCCCCCC)c1ccccc1Oc1nc(OC)cc(OC)n1 [Compound No. 6]	90
COc1cc(OC)nc(Oc2ccccc2C(OC(C)C)OC(C)C)n1 [Compound No. 2]	85

These molecules were tested on Johnsongrass (assay: Upland soil application test, johnsongrass). Details: Sorghum halepense, 1200 h; soil application one day after seeding, 50 g ai/a, wettable powder, fresh weight on 50th day after spray; read-out: Herbicidal effects Johnsongrass.
Type: in vivo
Protocol: as §1

Structure (SMILES)	pest or weed control at 5000 g/ha [%]
CCCCCCCOC(OCCCCCCC)c1ccccc1Oc1nc(OC)cc(OC)n1 [Compound No. 6]	100
COc1cc(OC)nc(Oc2ccccc2C(OC(C)C)OC(C)C)n1 [Compound No. 2]	100

What follows are molecules tested on Cotton (Gossypium indicum) (assay: Upland foliar application test, crop injury cotton). Details: foliar application at stage of 2-3 leaves, 50 g ai/a, emulsion, 40th day after spray.
Type: in vivo
Protocol: as §1, §2

Structure (SMILES)	Crop injury Cotton (Gossypium indicum) [%]
CCCCCCCOC(OCCCCCCC)c1ccccc1Oc1nc(OC)cc(OC)n1 [Compound No. 6]	0
COc1cc(OC)nc(Oc2ccccc2C(OC(C)C)OC(C)C)n1 [Compound No. 2]	0

Each molecule was assayed on Amaranth (Amaranthus viridis) (assay: Upland soil application test, amaranth). Details: 1200 h, soil application one day after seeding, 50 g ai/a, wettable powder, fresh weight on 50th day after spray, read-out: Herbicidal effects Amaranth (Amaranthus viridis).
Type: in vivo
Protocol: as §1

Structure (SMILES)	pest or weed control at 5000 g/ha [%]
CCCCCCCOC(OCCCCCCC)c1ccccc1Oc1nc(OC)cc(OC)n1 [Compound No. 6]	95
COc1cc(OC)nc(Oc2ccccc2C(OC(C)C)OC(C)C)n1 [Compound No. 2]	80

Source: US5178662A, “Benzaldehyde acetal compounds, preparation process thereof, and herbicidal compositions containing the same as active ingredients” (Mitsui Toatsu Chemicals, Inc., priority 1990, dated 1993)
